# What was measured:
# [1] = tested on: T1, YueD; carbonyl reductase from Bacillus sp. ECU0013; experiment: kinetics of asymmetric ketone reduction; format: biochemical; conditions: co-substrate NADPH; full assay conditions in supplement Table S3
# T1 construct: pET28a, His-tag purified from E. coli BL21(DE3); NADPH-dependent
# Text: kinetics of asymmetric ketone reduction on YueD; carbonyl reductase from Bacillus sp.
# [2] = tested on: T2, ScCR; carbonyl reductase from Streptomyces coelicolor; experiment: kinetics of asymmetric ketone reduction; format: biochemical; conditions: co-substrate NADH; full assay conditions in supplement Table S3
# T2 construct: pET28a, His-tag purified from E. coli BL21(DE3); NADH-dependent
structure (smiles),measurement,setting,value
"CC(=O)Nc1coc(C(C)=O)c1 [3A5AF, 3-Acetamido-5-acetylfuran]",Km,[1],0.5 mM
same,Km,[2],6.3 mM
